BindingDB's records for patent US20250282794 (Curadev Pharma, 2025)

Molecular target: Mitogen-activated protein kinase kinase kinase kinase 1 (Homo sapiens, UniProt Q92918)
Assay: HPK-1 biochemical enzyme assay
Description: Compound inhibitory potency was measured in an HPK-1 kinase inhibition assay. Briefly, recombinant full length HPK-1 enzyme (6.8 nM) was incubated with 10 μM ATP and 12.5 μM swine myelin basic protein (MBP) for 30 mins. at 25° C. in the presence of various concentrations of test compound or vehicle in 40 mM Tris.Cl pH7.4 buffer containing 20 mM MgCl2, 50 μM DTT and 0.1 mg/mL BSA. Reactions were quenched and reaction mixtures were then analyzed by an ADP-Glo kit which measures the formed ADP. The percent inhibition was calculated from the substrate conversion considering no enzyme control reactions for 100% inhibition and vehicle only reactions for 0% inhibition. The compounds were dissolved in DMSO and evaluated at 10 concentrations to determine an IC50 value.

Chain of Mitogen-activated protein kinase kinase kinase kinase 1 (Q92918 whole entry): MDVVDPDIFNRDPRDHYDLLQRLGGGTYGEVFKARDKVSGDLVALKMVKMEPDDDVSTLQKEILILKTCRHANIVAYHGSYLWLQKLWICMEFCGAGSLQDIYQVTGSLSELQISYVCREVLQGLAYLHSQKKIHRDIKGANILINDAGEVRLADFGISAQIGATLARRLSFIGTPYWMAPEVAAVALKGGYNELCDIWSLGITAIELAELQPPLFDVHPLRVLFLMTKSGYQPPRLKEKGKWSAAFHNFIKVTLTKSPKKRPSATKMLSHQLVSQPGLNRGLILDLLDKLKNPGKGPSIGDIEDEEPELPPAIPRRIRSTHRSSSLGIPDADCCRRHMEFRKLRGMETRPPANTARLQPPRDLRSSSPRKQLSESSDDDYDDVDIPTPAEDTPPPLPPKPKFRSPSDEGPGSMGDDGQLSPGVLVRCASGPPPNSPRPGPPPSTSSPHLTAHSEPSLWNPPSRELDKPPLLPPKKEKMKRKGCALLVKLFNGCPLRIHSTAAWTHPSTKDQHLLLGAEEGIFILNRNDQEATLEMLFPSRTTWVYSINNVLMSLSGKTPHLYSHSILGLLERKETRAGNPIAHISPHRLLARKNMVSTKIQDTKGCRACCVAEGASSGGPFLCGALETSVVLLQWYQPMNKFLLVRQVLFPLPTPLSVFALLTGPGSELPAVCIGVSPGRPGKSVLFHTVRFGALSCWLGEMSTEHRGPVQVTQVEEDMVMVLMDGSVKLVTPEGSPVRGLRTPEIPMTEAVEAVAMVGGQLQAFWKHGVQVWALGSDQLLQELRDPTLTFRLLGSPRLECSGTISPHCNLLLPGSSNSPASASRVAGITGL

Row | Compound | IC50
1 | Cc1c(Nc2cc[nH]c(=O)c2C(=O)Nc2ccc(C3CCN(C(C)C)CC3)cc2)cnc2c1NCCO2 [US20250282794, Example 279] | < 10 nM
2 | Cc1c(Nc2cc[nH]c(=O)c2C(=O)Nc2ccc(N3CCN(C4CCCC4)CC3)c(N)c2)cnc2c1NCCO2 [US20250282794, Example 311] | < 10 nM
3 | Cc1c(Nc2cc[nH]c(=O)c2C(=O)Nc2ccc(-c3ccccc3)cc2)cnc2c1NCCO2 [US20250282794, Example 331] | 10 to 100 nM
4 | Cc1c(Nc2cc[nH]c(=O)c2C(=O)Nc2ccc(N3CCC(O)(CN(C)C)CC3)c(F)c2)cnc2c1NCC(C)O2 (stereo unspecified) [US20250282794, Example 388] | < 10 nM
5 | Cc1c(Nc2cc[nH]c(=O)c2C(=O)Nc2ccc(N3CCN(C)CC3)c(CN)c2)cnc2c1NCCO2 [US20250282794, Example 393] | < 10 nM

Continued, values first:

Row | IC50 | Compound
6 | < 10 nM | COCCN1CCN(c2ccc(NC(=O)c3c(Nc4cnc5c(c4C)NCCO5)cc[nH]c3=O)cc2F)CC1 [US20250282794, Example 194]
7 | < 10 nM | COCCN1CCN(c2ccc(NC(=O)c3c(Nc4cnc5c(c4C)NCCO5)cc[nH]c3=O)cc2C)CC1 [US20250282794, Example 275]
8 | < 10 nM | COCCCN1CCN(c2ccc(NC(=O)c3c(Nc4cnc5c(c4C)NCCO5)cc[nH]c3=O)cc2)CC1 [US20250282794, Example 277]
9 | < 10 nM | Cc1c(Nc2cc[nH]c(=O)c2C(=O)Nc2ccc(N3CCC(O)CC3)cc2)cnc2c1NCCO2 [US20250282794, Example 278]
10 | < 10 nM | Cc1c(Nc2cc[nH]c(=O)c2C(=O)Nc2ccc(N3CCN(c4ccccn4)CC3)cc2)cnc2c1NCCO2 [US20250282794, Example 289]
11 | < 10 nM | Cc1c(Nc2cc[nH]c(=O)c2C(=O)Nc2ccc(N3CCN(C(=O)C4CCC4)CC3)cc2)cnc2c1NCCO2 [US20250282794, Example 314]
